Source: patent publication US20030129629A1, “Methods and compositions for the identification, assessment, prevention, and therapy of human cancers” (Millennium Pharmaceuticals, Inc., priority 2000, published 2003)
Several values for one entry are separate records, joined by “and”; a condition that tells them apart may be missing. Equal entries are not always repeated. Where two headings read alike, the source gives them in different places.

Test system: 60 cancer cell lines (NCI 60 cancer cell line series)
Assay: NCI-DTP in vitro cancer screen, sulforhodamine B (SRB) growth inhibition, 48 hour exposure
Assay type: cell-based, human
Experimental: Cancer Cell Line Preparation. Sixty cancer cell lines were obtained from the National Cancer Institute Developmental Therapeutics Program (NCI-DTP). Procedures for growing cells and testing compounds have been described previously (Scudiero et al., Cancer Res. 1988, 48:4827-4833; Stinson et al., Anticancer Res.; Myers et al., Electrophoresis 1997, 18:647-653). Cells are plated on day 0 at a density individualized for each cell line so that they will generally be sub-confluent at the end of the assay period. On day 1, a compound is added in the format for a duplicate-well, 5-dose, ten-fold interval dose response study.
No-drug, no-cell and no-growth controls are included. On day 3 the cells are processed for staining with sulforhodamine B (SRB), which reflects the amount of cell mass present at the end of a 48 hour exposure to the test agent. From dose response curves based on the SRB data, various parameters can be determined. […] More precisely, the quantity used in the calculation to be described is the potency measure −log{GI50}.
Activity database (A). […] This subset of compounds was selected from the larger 23,000 compound database available from the DTP. The compounds were selected on the basis of their known mechanism of action and chemical structure. The average potency −log{GI50} was extracted from the comma-delimited text files available through the Web at http://www.nci.nih.gov/intra/lmp/jnwbio.html. Subsequently, these −log{GI50} values were inspected manually and classified as indicating either Low, Medium or High sensitivity to each compound.

O=NN(CCCl)C(=O)NCCCl [BCNU]
sensitivity classification Low(1)/Medium(2)/High(3): 2 and 1 and 3

O=C1c2c(O)ccc(O)c2C(=O)c2c(NCCNCCO)ccc(NCCNCCO)c21 [Mitoxantrone]
classification of cell line as Low(1), Medium(2), High(3) sensitivity to compound (Breast BT-549 CL5013): 2 | classification of cell line as Low(1), Medium(2), High(3) sensitivity to compound (Breast HS-578T CL5006): 2 | classification of cell line as Low(1), Medium(2), High(3) sensitivity to compound (Breast MCF7(I) CL5001): 3 | classification of cell line as Low(1), Medium(2), High(3) sensitivity to compound (Breast MCF7/ADRr CL5002): 1 | classification of cell line as Low(1), Medium(2), High(3) sensitivity to compound (Breast MDA-MB-231 CL5005): 1 | classification of cell line as Low(1), Medium(2), High(3) sensitivity to compound (Breast MDA-MB-435 CL5011): 1 | classification of cell line as Low(1), Medium(2), High(3) sensitivity to compound (Breast MDA-N CL5012): 1 | classification of cell line as Low(1), Medium(2), High(3) sensitivity to compound (Breast T-47D CL5014): 2 | classification of cell line as Low(1), Medium(2), High(3) sensitivity to compound (CNS SF-268 CL12014): 2 | classification of cell line as Low(1), Medium(2), High(3) sensitivity to compound (CNS SF-295 CL12015): 2 | classification of cell line as Low(1), Medium(2), High(3) sensitivity to compound (CNS SF-539 CL12016): 3 | classification of cell line as Low(1), Medium(2), High(3) sensitivity to compound (CNS SNB-19 CL12002): 3 | classification of cell line as Low(1), Medium(2), High(3) sensitivity to compound (CNS SNB-75(I) CL12005): 3 | classification of cell line as Low(1), Medium(2), High(3) sensitivity to compound (CNS U251(I) CL12009): 3 | classification of cell line as Low(1), Medium(2), High(3) sensitivity to compound (Colon COLO-250 CL4010): 2 | classification of cell line as Low(1), Medium(2), High(3) sensitivity to compound (Colon HCC-2998 CL4002): 1 | classification of cell line as Low(1), Medium(2), High(3) sensitivity to compound (Colon HCT-15 CL4015): 1 | classification of cell line as Low(1), Medium(2), High(3) sensitivity to compound (Colon HCT-116 CL4003): 2 | classification of cell line as Low(1), Medium(2), High(3) sensitivity to compound (Colon HT29(I) CL4001): 1 | classification of cell line as Low(1), Medium(2), High(3) sensitivity to compound (Colon KM12 CL4017): 1 | classification of cell line as Low(1), Medium(2), High(3) sensitivity to compound (Colon SW-620 CL4009): 2 | classification of cell line as Low(1), Medium(2), High(3) sensitivity to compound (Leukemia CCRF-CEM(I) CL7003): 3 | classification of cell line as Low(1), Medium(2), High(3) sensitivity to compound (Leukemia HL-60(I) CL7008): 3 | classification of cell line as Low(1), Medium(2), High(3) sensitivity to compound (Leukemia K562(I) CL7005): 2 | classification of cell line as Low(1), Medium(2), High(3) sensitivity to compound (Leukemia MOLT-4 CL7006): 3 | classification of cell line as Low(1), Medium(2), High(3) sensitivity to compound (Leukemia RPMI-8226(I) CL7010): 2 | classification of cell line as Low(1), Medium(2), High(3) sensitivity to compound (Leukemia SR CL7019): 3 | classification of cell line as Low(1), Medium(2), High(3) sensitivity to compound (Melanoma LOX IMVI CL10001): 2 | classification of cell line as Low(1), Medium(2), High(3) sensitivity to compound (Melanoma M14 CL10014): 2 | classification of cell line as Low(1), Medium(2), High(3) sensitivity to compound (Melanoma MALME-3M CL10002): 2 | classification of cell line as Low(1), Medium(2), High(3) sensitivity to compound (Melanoma SK-MEL-2 CL10005): 1 | classification of cell line as Low(1), Medium(2), High(3) sensitivity to compound (Melanoma SK-MEL-5 CL10007): 2 | classification of cell line as Low(1), Medium(2), High(3) sensitivity to compound (Melanoma SK-MEL-28 CL10008): 1 | classification of cell line as Low(1), Medium(2), High(3) sensitivity to compound (Melanoma UACC-62 CL10020): 2 | classification of cell line as Low(1), Medium(2), High(3) sensitivity to compound (Melanoma UACC-257 CL10021): 1 | classification of cell line as Low(1), Medium(2), High(3) sensitivity to compound (NSCLC A549/ATCC CL1004): 3 | classification of cell line as Low(1), Medium(2), High(3) sensitivity to compound (NSCLC EKVX CL1008): 1 | classification of cell line as Low(1), Medium(2), High(3) sensitivity to compound (NSCLC HOP-62 CL1026): 3 | classification of cell line as Low(1), Medium(2), High(3) sensitivity to compound (NSCLC HOP-92 CL1029): 3 | sensitivity classification Low(1)/Medium(2)/High(3) (NSCLC NCI-H23(I) CL1001): 2 | classification of cell line as Low(1), Medium(2), High(3) sensitivity to compound (NSCLC NCI-H226 CL1013): 3 | sensitivity classification Low(1)/Medium(2)/High(3) (NSCLC NCI-H332M CL1017): 1 | sensitivity classification Low(1)/Medium(2)/High(3) (NSCLC NCI-H460 CL1021): 3 | sensitivity classification Low(1)/Medium(2)/High(3) (NSCLC NCI-H522 CL1003): 2 | sensitivity classification Low(1)/Medium(2)/High(3) (Ovarian IGROV1 CL6010): 2 | sensitivity classification Low(1)/Medium(2)/High(3) (Ovarian OVCAR-3 CL6001): 1 | sensitivity classification Low(1)/Medium(2)/High(3) (Ovarian OVCAR-4 CL6002): 1 | sensitivity classification Low(1)/Medium(2)/High(3) (Ovarian OVCAR-5 CL6003): 1 | sensitivity classification Low(1)/Medium(2)/High(3) (Ovarian OVCAR-8 CL6005): 2 | sensitivity classification Low(1)/Medium(2)/High(3) (Ovarian SK-OV-3 CL6011): 2 | sensitivity classification Low(1)/Medium(2)/High(3) (Prostate DU-145 CL11003): 2 | sensitivity classification Low(1)/Medium(2)/High(3) (Prostate PC-3(I) CL11001): 2 | sensitivity classification Low(1)/Medium(2)/High(3) (Renal 786-0 CL9018): 2 | sensitivity classification Low(1)/Medium(2)/High(3) (Renal A498 CL9013): 2 | sensitivity classification Low(1)/Medium(2)/High(3) (Renal ACHN CL9023): 3 | sensitivity classification Low(1)/Medium(2)/High(3) (Renal CAKI-1 CL9015): 3 | sensitivity classification Low(1)/Medium(2)/High(3) (Renal RXF-393 CL9016): 2 | sensitivity classification Low(1)/Medium(2)/High(3) (Renal SN12C CL9008): 3 | sensitivity classification Low(1)/Medium(2)/High(3) (Renal TK10 CL9024): 1 | sensitivity classification Low(1)/Medium(2)/High(3) (Renal UO-31 CL9004): 1
